Assay results taken from patent US20230241083A1, “FORMULATION COMPRISING CANNABINOIDS” (CANNOVEX BV, priority 2020, published 2023).

Test: Stability study of THC in a receiver solution
Assay type: physicochemical
Settings: receiver solution EtOH:H2O (50/50 vol); 3, 6, 8, 24, 30, 48 hours
Text: FIG. 2: Stability study of THC in a receiver solution.

## CCCCCc1cc(O)c2c(c1)OC(C)(C)[C@@H]1CCC(C)=C[C@@H]21 [THC, Delta-9-tetrahydrocannabinol]
  THC concentration over time in receiver solution (stability): does not decay over time
